Source: ChEMBL document CHEMBL1201862, “PubChem BioAssay data set” (2004)
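96-well plates; 48 h exposure; 5 concentrations. Endpoints by linear interpolation between flanking doses. Not reached: highest tested concentration assigned. GI50: concentration for 50% inhibition of growth.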 Active and inactive are the calls of the source. Cut-off read from the data, not from the text of the source: active = GI50 up to about 1.1 µM and inactive = higher.

Key:
Experiment in all cases: growth of human tumour cells (NCI), 48 h
HOP-18 = test system: HOP-18
A549 = test system: A549
HOP-92 = test system: HOP-92
DLD-1 = test system: DLD-1
IGROV-1 = test system: IGROV-1
COLO 205 = test system: COLO 205
HCC 2998 = test system: HCC 2998
SF-295 = test system: SF-295
OVCAR-8 = test system: OVCAR-8
HT-29 = test system: HT-29
SK-MEL-5 = test system: SK-MEL-5
LOX IMVI = test system: LOX IMVI
HL-60 = test system: HL-60
KM12 = test system: KM12
TK-10 = test system: TK-10
SNB-19 = test system: SNB-19
M19-MEL = test system: M19-MEL
SF-268 = test system: SF-268
UACC-257 = test system: UACC-257
EKVX = test system: EKVX
SW-620 = test system: SW-620
UACC-62 = test system: UACC-62
CCRF-CEM = test system: CCRF-CEM
SF-539 = test system: SF-539
SK-OV-3 = test system: SK-OV-3
SNB-78 = test system: SNB-78
SK-MEL-2 = test system: SK-MEL-2
A498 = test system: A498
KM-20L2 = test system: KM-20L2
HCT-116 = test system: HCT-116
SNB-75 = test system: SNB-75
RXF 393 = test system: RXF 393
MOLT-4 = test system: MOLT-4
DMS-114 = test system: DMS-114
NCI-H460 = test system: NCI-H460
NCI-H226 = test system: NCI-H226
NCI-H522 = test system: NCI-H522
UO-31 = test system: UO-31
HOP-62 = test system: HOP-62
RXF 631 = test system: RXF 631
NCI-H23 = test system: NCI-H23
OVCAR-3 = test system: OVCAR-3
DMS-273 = test system: DMS-273
HCT-15 = test system: HCT-15
K562 = test system: K562
LXFL 529 = test system: LXFL 529
U-251 = test system: U-251
OVCAR-4 = test system: OVCAR-4
ACHN = test system: ACHN
Malme-3M = test system: Malme-3M
SK-MEL-28 = test system: SK-MEL-28
SR = test system: SR
M14 = test system: M14
OVCAR-5 = test system: OVCAR-5
786-0 = test system: 786-0
CAKI-1 = test system: CAKI-1
SN12C = test system: SN12C
RPMI-8226 = test system: RPMI-8226
MDA-MB-231 = test system: MDA-MB-231
MCF7 = test system: MCF7
DU-145 = test system: DU-145
NCI/ADR-RES = test system: NCI/ADR-RES
MDA-N = test system: MDA-N
PC-3 = test system: PC-3
BT-549 = test system: BT-549
T47D = test system: T47D

COC(=O)C(C(=O)C(=O)Nc1ccc([N+](=O)[O-])cc1)c1nc2ccc([N+](=O)[O-])cc2nc1O (stereo not given)
GI50 (HOP-18): > 100 µM (inactive) | GI50 (A549): > 100 µM (inactive) | GI50 (HOP-92): > 100 µM (inactive) | GI50 (DLD-1): > 100 µM (inactive) | GI50 (IGROV-1): > 100 µM (inactive) | GI50 (COLO 205): > 100 µM (inactive) | GI50 (HCC 2998): > 100 µM (inactive) | GI50 (SF-295): > 100 µM (inactive) | GI50 (OVCAR-8): > 100 µM (inactive) | GI50 (HT-29): > 100 µM (inactive) | GI50 (SK-MEL-5): 65.6 µM (inactive) | GI50 (LOX IMVI): > 100 µM (inactive) | GI50 (HL-60): 41.9 µM (inactive) | GI50 (KM12): > 100 µM (inactive) | GI50 (TK-10): > 100 µM (inactive) | GI50 (SNB-19): > 100 µM (inactive) | GI50 (M19-MEL): > 100 µM (inactive) | GI50 (SF-268): > 100 µM (inactive) | GI50 (UACC-257): > 100 µM (inactive) | GI50 (EKVX): > 100 µM (inactive) | GI50 (SW-620): > 100 µM (inactive) | GI50 (UACC-62): 63.1 µM (inactive) | GI50 (CCRF-CEM): 55.2 µM (inactive) | GI50 (SF-539): > 100 µM (inactive) | GI50 (SK-OV-3): > 100 µM (inactive) | GI50 (SNB-78): > 100 µM (inactive) | GI50 (SK-MEL-2): > 100 µM (inactive) | GI50 (A498): > 100 µM (inactive) | GI50 (KM-20L2): > 100 µM (inactive) | GI50 (HCT-116): > 100 µM (inactive) | GI50 (SNB-75): > 100 µM (inactive) | GI50 (RXF 393): > 100 µM (inactive) | GI50 (MOLT-4): > 100 µM (inactive) | GI50 (DMS-114): 68.2 µM (inactive) | GI50 (NCI-H460): > 100 µM (inactive) | GI50 (NCI-H226): > 100 µM (inactive) | GI50 (NCI-H522): 14.1 µM (inactive) | GI50 (UO-31): > 100 µM (inactive) | GI50 (HOP-62): > 100 µM (inactive) | GI50 (RXF 631): > 100 µM (inactive) | GI50 (NCI-H23): > 100 µM (inactive) | GI50 (OVCAR-3): > 100 µM (inactive) | GI50 (DMS-273): > 100 µM (inactive) | GI50 (HCT-15): > 100 µM | GI50 (K562): 39.2 µM (inactive) | GI50 (LXFL 529): 43.5 µM (inactive) | GI50 (U-251): > 100 µM (inactive) | GI50 (OVCAR-4): > 100 µM (inactive) | GI50 (ACHN): > 100 µM (inactive) | GI50 (Malme-3M): > 100 µM (inactive) | GI50 (SK-MEL-28): > 100 µM (inactive) | GI50 (SR): > 100 µM (inactive) | GI50 (M14): 76.6 µM (inactive) | GI50 (OVCAR-5): > 100 µM (inactive) | GI50 (786-0): > 100 µM (inactive) | GI50 (CAKI-1): > 100 µM (inactive) | GI50 (SN12C): > 100 µM (inactive)

COC(=O)C1=CC2CC1C(S(=O)(=O)c1ccccc1)C2S(=O)(=O)c1ccccc1 (stereo not given)
GI50 (HOP-18): 16.7 µM (inactive) | GI50 (A549): 24.8 µM (inactive) | GI50 (HOP-92): 15.1 µM (inactive) | GI50 (DLD-1): 14.5 µM (inactive) | GI50 (IGROV-1): 32.7 µM (inactive) | GI50 (COLO 205): 8.45 µM (inactive) | GI50 (HCC 2998): 19.7 µM (inactive) | GI50 (SF-295): 21.3 µM (inactive) | GI50 (OVCAR-8): 13 µM (inactive) | GI50 (HT-29): 13.8 µM (inactive) | GI50 (SK-MEL-5): 16.9 µM (inactive) | GI50 (LOX IMVI): 13.7 µM (inactive) | GI50 (HL-60): 2.62 µM (inactive) | GI50 (TK-10): 10.4 µM (inactive) | GI50 (SNB-19): > 100 µM (inactive) | GI50 (M19-MEL): 18.3 µM (inactive) | GI50 (SF-268): 22.9 µM (inactive) | GI50 (UACC-257): 15.2 µM (inactive) | GI50 (SW-620): 4.59 µM (inactive) | GI50 (UACC-62): 22.1 µM (inactive) | GI50 (CCRF-CEM): 2.92 µM (inactive) | GI50 (SK-OV-3): 44.3 µM (inactive) | GI50 (A498): 17.6 µM (inactive) | GI50 (KM-20L2): 16.4 µM (inactive) | GI50 (HCT-116): 14.8 µM (inactive) | GI50 (MOLT-4): 4.42 µM (inactive) | GI50 (DMS-114): 15.5 µM (inactive) | GI50 (NCI-H460): 21.6 µM (inactive) | GI50 (NCI-H226): 17.6 µM (inactive) | GI50 (UO-31): 14.3 µM (inactive) | GI50 (HOP-62): 54.3 µM (inactive) | GI50 (RXF 631): 13.5 µM (inactive) | GI50 (NCI-H23): 18.1 µM (inactive) | GI50 (OVCAR-3): 7.23 µM (inactive) | GI50 (DMS-273): 10.5 µM (inactive) | GI50 (HCT-15): 12.5 µM | GI50 (K562): 5.14 µM (inactive) | GI50 (LXFL 529): 5.81 µM (inactive) | GI50 (U-251): 17.3 µM (inactive) | GI50 (OVCAR-4): 17.5 µM (inactive) | GI50 (ACHN): 7.48 µM (inactive) | GI50 (Malme-3M): 10.7 µM (inactive) | GI50 (SK-MEL-28): 14.1 µM (inactive) | GI50 (RPMI-8226): 5.4 µM (inactive) | GI50 (SR): 2.56 µM (inactive) | GI50 (M14): 11.3 µM (inactive) | GI50 (OVCAR-5): 14.7 µM (inactive) | GI50 (786-0): 10.3 µM (inactive) | GI50 (CAKI-1): 7.83 µM (inactive) | GI50 (SN12C): 14 µM (inactive)

COc1cccc2c1C(=O)c1c(O)c3c(c(O)c1C2=O)C[C@@](O)(C(=O)CO)C[C@@H]3OC1CC(N)CC(C)O1 (stereo not given in full)
GI50 (HOP-18): 0.0348 µM (active) | GI50 (HOP-92): 0.0416 µM (active) | GI50 (DLD-1): 0.092 µM (active) | GI50 (COLO 205): 0.042 µM (active) | GI50 (MDA-MB-231): 0.0612 µM (active) | GI50 (HCC 2998): 0.0706 µM (active) | GI50 (SF-295): 0.0239 µM (active) | GI50 (HT-29): 0.035 µM (active) | GI50 (MCF7): 0.024 µM (active) | GI50 (SK-MEL-5): 0.0371 µM (active) | GI50 (DU-145): 0.0267 µM (active) | GI50 (NCI/ADR-RES): 3.67 µM (inactive) | GI50 (M19-MEL): 0.0314 µM (active) | GI50 (SF-268): 0.0451 µM (active) | GI50 (UACC-257): 0.051 µM (active) | GI50 (EKVX): 0.0847 µM (active) | GI50 (UACC-62): 0.0254 µM (active) | GI50 (CCRF-CEM): 0.0267 µM (active) | GI50 (SK-OV-3): 0.0521 µM (active) | GI50 (SNB-78): 0.128 µM (active) | GI50 (KM-20L2): 0.0695 µM (active) | GI50 (SNB-75): 0.0402 µM (active) | GI50 (NCI-H522): 0.038 µM (active) | GI50 (MDA-N): 0.0955 µM (active) | GI50 (PC-3): 0.027 µM (active) | GI50 (HOP-62): 0.0221 µM (active) | GI50 (RXF 631): 0.0301 µM (active) | GI50 (OVCAR-3): 0.0547 µM (active) | GI50 (BT-549): 0.0283 µM (active) | GI50 (LXFL 529): 0.0462 µM (active) | GI50 (OVCAR-4): 0.046 µM (active) | GI50 (Malme-3M): 0.0284 µM (active) | GI50 (SR): 0.00266 µM (active) | GI50 (M14): 0.0803 µM (active) | GI50 (OVCAR-5): 0.074 µM (active) | GI50 (786-0): 0.0247 µM (active) | GI50 (T47D): 0.0233 µM (active) | GI50 (SN12C): 0.0299 µM (active)
